In ChEMBL document CHEMBL1158749, “Cytotoxic cembranoid diterpenes from a soft coral Sinularia gibberosa” (J Nat Prod, 2005):
Converted amounts (≈) assume the structure as drawn.

Experiments:
Type in all cases: functional, cell-based
BGC-823 = assay: Cytotoxicity against human BGC823 cells by SRB assay
MDA-MB-435 = assay: Cytotoxicity against human MDA-MB-435 cells by SRB assay
HL-60 = assay: Cytotoxicity against human HL60 cells by MTT assay

SMILES	IC50 (BGC-823) [µg/mL]	IC50 (MDA-MB-435) [µg/mL]	IC50 (HL-60) [µg/mL]
C=C1C(=O)O[C@@H]2[C@@H]1C[C@H]1O[C@]1(CO)CC/C=C(\C)CC/C=C(\C)[C@@H]2O [SINULAROLIDE C]	5.2 (≈ 14.9 µM)	7.7 (≈ 22.1 µM)	5.1 (≈ 14.6 µM)
C=C1C(=O)O[C@@H]2[C@@H]1C[C@H](O)[C@@](O)(CO)CC/C=C(\C)CC/C=C(\C)[C@@H]2O [SINULAROLIDE A]	> 10	> 10	> 10
C=C1C(=O)O[C@H]2C/C(C)=C/CC/C(C)=C/CC[C@@]3(CO)O[C@@H]3C[C@H]12 [SINULAROLIDE D]	6.1 (≈ 18.3 µM)	> 10	2.3 (≈ 6.92 µM)
C=C1C(=O)O[C@@H]2[C@@H]1C[C@H]1O[C@]1(CO)CC/C=C(\C)CC/C=C(\C)[C@H]2O [SINULAROLIDE B]	6.3 (≈ 18.1 µM)	8 (≈ 23 µM)	5.2 (≈ 14.9 µM)
C=C1C(=O)O[C@@H]2[C@@H]1C[C@@H]1O[C@]1(C)CC/C=C(\C)CC/C=C(\C)[C@@H]2O [SINULAROLIDE E]	8.6 (≈ 25.9 µM)	2.1 (≈ 6.32 µM)	6 (≈ 18 µM)
